molecular target: T1, human capsaicin receptor (Homo sapiens, UniProt Q8NER1); assay: Calcium mobilization assay, determination of antagonist activity (Example 6); assay type: cell-based; conditions: Table III; assay provided in Example 6; cells expressing human capsaicin receptor, capsaicin at EC50
T1 construct: expressed in transfected cells
Procedure: A cDNA encoding full length human capsaicin receptor (SEQ ID NO:1, 2 or 3 of U.S. Pat. No. 6,482,611) is subcloned in the plasmid pBK-CMV (Stratagene, La Jolla, Calif.) for recombinant expression in mammalian cells.
Human embryonic kidney (HEK293) cells are transfected with the pBK-CMV expression construct encoding the full length human capsaicin receptor using standard methods. The transfected cells are selected over two weeks in media containing G418 (400 μg/ml) to obtain a pool of stably transfected cells. Independent clones are isolated from this pool by limiting dilution to obtain clonal stable cell lines for use in subsequent experiments.
Cells transfected with expression plasmids (as described in Example 4) and thereby expressing human capsaicin receptor are seeded and grown to 70-90% confluency in FALCON black-walled, clear-bottomed 96-well plates (#3904, BECTON-DICKINSON, Franklin Lakes, N.J.). The culture medium is emptied from the 96 well plates and FLUO-3 AM calcium sensitive dye (Molecular Probes, Eugene, Oreg.) is added to each well (dye solution: 1 mg FLUO-3 AM, 440 μL DMSO and 440 μl 20% pluronic acid in DMSO, diluted 1:250 in Krebs-Ringer HEPES (KRH) buffer (25 mM HEPES, […], 0.96 mM NaH2PO4, 1 mM MgSO4, 2 mM CaCl2, 5 mM glucose, 1 mM probenecid, pH 7.4), 50 μl diluted solution per well). Plates are covered with aluminum foil and incubated at 37° C. for 1-2 hours in an environment containing 5% CO2. After the incubation, the dye is emptied from the plates, and the cells are washed once with KRH buffer, and resuspended in KRH buffer.
To measure the ability of a test compound to agonize or antagonize a calcium mobilization response in cells expressing capsaicin receptors to capsaicin or other vanilloid agonist, the EC50 of the agonist capsaicin is first determined. An additional 20 μl of KRH buffer and 1 μl DMSO is added to each well of cells, prepared as described above. 100 μl capsaicin in KRH buffer is automatically transferred by the FLIPR instrument to each well. Capsaicin-induced calcium mobilization is monitored using either FLUOROSKAN ASCENT (Labsystems; Franklin, Mass.) or FLIPR (fluorometric imaging plate reader system; Molecular Devices, Sunnyvale, Calif.) instruments. Data obtained between 30 and 60 seconds after agonist application are used to generate an 8-point concentration response curve, with final capsaicin concentrations of 1 nM to 3 μM. KALEIDAGRAPH software (Synergy Software, Reading, Pa.) is used to fit the data to the equation: […]
Test compounds are dissolved in DMSO, diluted in 20 μl KRH buffer so that the final concentration of test compounds in the assay well is between […] and 5 μM, and added to cells prepared as described above. The 96 well plates containing prepared cells and test compounds are incubated in the dark at room temperature for 0.5 to 6 hours. It is important that the incubation not continue beyond 6 hours. Just prior to determining the fluorescence response, 100 μl capsaicin in KRH buffer at twice the EC50 concentration determined as described above is automatically added by the FLIPR instrument to each well of the 96 well plate for a final sample volume of 200 μl and a final capsaicin concentration equal to the EC50. The final concentration of test compounds in the assay wells is between 1 μM and 5 μM. […] The concentration of antagonist required to provide a 50% decrease, relative to the response observed in the presence of capsaicin and without antagonist, is the IC50 for the antagonist, and is preferably below 1 micromolar, 100 nanomolar, 10 nanomolar or 1 nanomolar.

T1 sequence (Q8NER1 whole entry): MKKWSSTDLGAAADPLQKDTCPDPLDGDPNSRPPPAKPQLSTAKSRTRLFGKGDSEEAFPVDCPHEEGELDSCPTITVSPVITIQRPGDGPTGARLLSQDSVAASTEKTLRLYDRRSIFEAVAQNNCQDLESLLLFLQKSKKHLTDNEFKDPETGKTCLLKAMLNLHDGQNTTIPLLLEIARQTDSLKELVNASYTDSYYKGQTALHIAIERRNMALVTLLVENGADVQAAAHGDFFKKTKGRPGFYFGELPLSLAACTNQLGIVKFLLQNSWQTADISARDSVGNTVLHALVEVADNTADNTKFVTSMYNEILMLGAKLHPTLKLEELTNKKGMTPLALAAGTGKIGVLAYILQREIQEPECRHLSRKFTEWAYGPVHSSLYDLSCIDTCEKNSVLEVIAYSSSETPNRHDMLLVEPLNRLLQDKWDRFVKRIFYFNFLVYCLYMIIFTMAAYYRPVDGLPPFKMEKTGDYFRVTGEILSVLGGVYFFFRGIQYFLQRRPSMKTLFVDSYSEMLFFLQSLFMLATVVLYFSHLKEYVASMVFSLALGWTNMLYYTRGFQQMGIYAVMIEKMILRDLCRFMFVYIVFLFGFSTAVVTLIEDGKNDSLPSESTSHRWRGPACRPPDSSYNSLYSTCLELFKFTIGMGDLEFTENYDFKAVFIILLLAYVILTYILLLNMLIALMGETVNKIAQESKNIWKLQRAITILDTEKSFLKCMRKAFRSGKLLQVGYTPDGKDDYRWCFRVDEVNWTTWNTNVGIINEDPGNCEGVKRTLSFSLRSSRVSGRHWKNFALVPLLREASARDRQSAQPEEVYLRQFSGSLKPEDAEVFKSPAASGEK

IC50 [nM] | SMILES
< 1000 | CN(C)CCOc1cc(C(F)(F)F)c(-c2cnc3c(Nc4ccc(C(F)(F)F)cn4)ccnc3n2)nn1 [Compound 62, 3-{6-[2-(dimethylamino)ethoxy]-4-(trifluoromethyl)pyridazin-3-yl}-N-[5-(trifluoromethyl)pyridin-2-yl]pyrido[2,3-b]pyrazin-8-amine]
< 1000 | FC(F)(F)c1ccnnc1-c1cnc2c(Nc3cnc4ccccc4n3)ccnc2n1 [Compound 45, N-2-quinoxalinyl-3-[4-(trifluoromethyl)-3-pyridazinyl]pyrido[2,3-b]pyrazin-8-amine]
< 1000 | CC(O)CCNc1cc(C(F)(F)F)c(-c2cnc3c(Nc4ccc(C(F)(F)F)cn4)ccnc3n2)nn1 (centres unmarked) [Compound 174, 4-{[5-(trifluoromethyl)-6-(8-{[5-(trifluoromethyl)pyridin-2-yl]amino}pyrido[2,3-b]pyrazin-3-yl)pyridazin-3-yl]amino}butan-2-ol]
< 1000 | CCN(CCN(C)C)c1cc(C(F)(F)F)c(-c2cnc3c(Nc4ccc(C(F)(F)F)cn4)ccnc3n2)nn1 [Compound 94, N-ethyl-N′,N′-dimethyl-N-[5-(trifluoromethyl)-6-(8-{[5-(trifluoromethyl)pyridin-2-yl]amino}pyrido[2,3-b]pyrazin-3-yl)pyridazin-3-yl]ethane-1,2-diamine]
< 1000 | CCN(CC)CCNc1cc(C(F)(F)F)c(-c2cnc3c(Nc4ccc(C(F)(F)F)cn4)ccnc3n2)nn1 [Compound 70, N,N-diethyl-N′-[5-(trifluoromethyl)-6-(8-{[5-(trifluoromethyl)pyridin-2-yl]amino}pyrido[2,3-b]pyrazin-3-yl)pyridazin-3-yl]ethane-1,2-diamine]
< 1000 | CC(O)CNc1cc(C(F)(F)F)c(-c2cnc3c(Nc4ccc(C(F)(F)F)cn4)ccnc3n2)nn1 (centres unmarked) [Compound 116, 1-{[5-(trifluoromethyl)-6-(8-{[5-(trifluoromethyl)pyridin-2-yl]amino}pyrido[2,3-b]pyrazin-3-yl)pyridazin-3-yl]amino}propan-2-ol]
< 1000 | FC(F)(F)c1ccc(Nc2ccnc3nc(-c4nnc(NC5CCC5)cc4C(F)(F)F)cnc23)nc1 [Compound 107, 3-[6-(cyclobutylamino)-4-(trifluoromethyl)pyridazin-3-yl]-N-[5-(trifluoromethyl)pyridin-2-yl]pyrido[2,3-b]pyrazin-8-amine]
< 1000 | CN(C)CCCOc1cc(C(F)(F)F)c(-c2cnc3c(Nc4ccc(C(F)(F)F)cn4)ccnc3n2)nn1 [Compound 64, 3-{6-[3-(dimethylamino)propoxy]-4-(trifluoromethyl)pyridazin-3-yl}-N-[5-(trifluoromethyl)pyridin-2-yl]pyrido[2,3-b]pyrazin-8-amine]
< 1000 | CNc1cc(C(F)(F)F)c(-c2cnc3c(Nc4ccc(C(F)(F)F)cn4)ccnc3n2)nn1 [Compound 100, 3-[6-(methylamino)-4-(trifluoromethyl)pyridazin-3-yl]-N-[5-(trifluoromethyl)pyridin-2-yl]pyrido[2,3-b]pyrazin-8-amine]
< 1000 | CC(C)N(C)c1cc(C(F)(F)F)c(-c2cnc3c(Nc4ccc(C(F)(F)F)cn4)ccnc3n2)nn1 [Compound 185, 3-{6-[isopropyl(methyl)amino]-4-(trifluoromethyl)pyridazin-3-yl}-N-[5-(trifluoromethyl)pyridin-2-yl]pyrido[2,3-b]pyrazin-8-amine]
< 1000 | CC(CN(C)C)Nc1cc(C(F)(F)F)c(-c2cnc3c(Nc4ccc(C(F)(F)F)cn4)ccnc3n2)nn1 (centres unmarked) [Compound 82, N1,N1-dimethyl-N2-[5-(trifluoromethyl)-6-(8-{[5-(trifluoromethyl)pyridin-2-yl]amino}pyrido[2,3-b]pyrazin-3-yl)pyridazin-3-yl]propane-1,2-diamine]
< 1000 | CCN1CCN(c2cc(C(F)(F)F)c(-c3cnc4c(Nc5ccc(C(F)(F)F)cn5)ccnc4n3)nn2)CC1 [Compound 88, 3-[6-(4-ethylpiperazin-1-yl)-4-(trifluoromethyl)pyridazin-3-yl]-N-[5-(trifluoromethyl)pyridin-2-yl]pyrido[2,3-b]pyrazin-8-amine]
< 1000 | FC(F)(F)c1ccc(Nc2ccnc3nc(-c4nnc(N5CCCC5)cc4C(F)(F)F)cnc23)nc1 [Compound 120, 3-[6-pyrrolidin-1-yl-4-(trifluoromethyl)pyridazin-3-yl]-N-[5-(trifluoromethyl)pyridin-2-yl]pyrido[2,3-b]pyrazin-8-amine]
< 1000 | CN(C)C(=O)CN(C)c1cc(C(F)(F)F)c(-c2cnc3c(Nc4ccc(C(F)(F)F)cn4)ccnc3n2)nn1 [Compound 59, N,N,N2-trimethyl-N2-[5-(trifluoromethyl)-6-(8-{[5-(trifluoromethyl)pyridin-2-yl]amino}pyrido[2,3-b]pyrazin-3-yl)pyridazin-3-yl]glycinamide]
< 1000 | CC(C)C(C)Nc1cc(C(F)(F)F)c(-c2cnc3c(Nc4ccc(C(F)(F)F)cn4)ccnc3n2)nn1 (centres unmarked) [Compound 111, 3-{6-[(1,2-dimethylpropyl)amino]-4-(trifluoromethyl)pyridazin-3-yl}-N-[5-(trifluoromethyl)pyridin-2-yl]pyrido[2,3-b]pyrazin-8-amine]
< 1000 | CC(C)(C)Nc1cc(C(F)(F)F)c(-c2cnc3c(Nc4ccc(C(F)(F)F)cn4)ccnc3n2)nn1 [Compound 161, 3-[6-(tert-butylamino)-4-(trifluoromethyl)pyridazin-3-yl]-N-[5-(trifluoromethyl)pyridin-2-yl]pyrido[2,3-b]pyrazin-8-amine]
< 1000 | COCCN(C)c1cc(C(F)(F)F)c(-c2cnc3c(Nc4ccc(C(F)(F)F)cn4)ccnc3n2)nn1 [Compound 181, 3-{6-[(2-methoxyethyl)(methyl)amino]-4-(trifluoromethyl)pyridazin-3-yl}-N-[5-(trifluoromethyl)pyridin-2-yl]pyrido[2,3-b]pyrazin-8-amine]
< 1000 | CCCCN(C)c1cc(C(F)(F)F)c(-c2cnc3c(Nc4ccc(C(F)(F)F)cn4)ccnc3n2)nn1 [Compound 122, 3-{6-[butyl(methyl)amino]-4-(trifluoromethyl)pyridazin-3-yl}-N-[5-(trifluoromethyl)pyridin-2-yl]pyrido[2,3-b]pyrazin-8-amine]
< 1000 | FC(F)(F)c1ccc(Nc2ccnc3nc(-c4nnc(NCC5CC5)cc4C(F)(F)F)cnc23)nc1 [Compound 103, 3-{6-[(cyclopropylmethyl)amino]-4-(trifluoromethyl)pyridazin-3-yl}-N-[5-(trifluoromethyl)pyridin-2-yl]pyrido[2,3-b]pyrazin-8-amine]
< 1000 | CN(C)CCNc1cc(C(F)(F)F)c(-c2cnc3c(Nc4ccc(C(F)(F)F)cn4)ccnc3n2)nn1 [Compound 69, N,N-dimethyl-N′-[5-(trifluoromethyl)-6-(8-{[5-(trifluoromethyl)pyridin-2-yl]amino}pyrido[2,3-b]pyrazin-3-yl)pyridazin-3-yl]ethane-1,2-diamine]
< 1000 | C=CCNc1cc(C(F)(F)F)c(-c2cnc3c(Nc4ccc(C(F)(F)F)cn4)ccnc3n2)nn1 [Compound 152, 3-[6-(allylamino)-4-(trifluoromethyl)pyridazin-3-yl]-N-[5-(trifluoromethyl)pyridin-2-yl]pyrido[2,3-b]pyrazin-8-amine]
< 1000 | CN(CCCO)c1cc(C(F)(F)F)c(-c2cnc3c(Nc4ccc(C(F)(F)F)cn4)ccnc3n2)nn1 [Compound 137, 3-{methyl[5-(trifluoromethyl)-6-(8-{[5-(trifluoromethyl)pyridin-2-yl]amino}pyrido[2,3-b]pyrazin-3-yl)pyridazin-3-yl]amino}propan-1-ol]

same assay, conditions: assay provided in Example 6; cells expressing human capsaicin receptor, capsaicin at EC50

IC50 [nM] | SMILES
< 1000 | FC(F)(F)c1ccc(Nc2ccnc3nc(-c4nnccc4C(F)(F)F)ccc23)nc1 [Compound 1, N-[5-(Trifluoromethyl)pyridin-2-yl]-7-[4-(trifluoromethyl)pyridazin-3-yl]-1,8-naphthyridin-4-amine]
